Test results reported in ChEMBL document CHEMBL4507299, “Data for DCP probe PF-04554878” (2021).

Assays:
[1] = target: 5-hydroxytryptamine receptor 1B (Homo sapiens) (UniProt P28222); conditions: Compound concentration 10.0 uM
[2] = target: Insulin-like growth factor 1 receptor (Homo sapiens) (UniProt P08069)
[3] = target: Mitogen-activated protein kinase 14 (Homo sapiens) (UniProt Q16539)
[4] = target: Casein kinase I isoform gamma-1 (Homo sapiens) (UniProt Q9HCP0)
[5] = target: Hepatocyte growth factor receptor (Homo sapiens) (UniProt P08581)
[6] = target: Testis-specific serine/threonine-protein kinase 3 (Homo sapiens) (UniProt Q96PN8)
[7] = target: Muscarinic acetylcholine receptor M2 (Homo sapiens) (UniProt P08172); conditions: Compound concentration 10.0 uM
[8] = target: T1, Tyrosine-protein kinase JAK3 (Homo sapiens) (UniProt P52333)
T1 sequence (whole entry): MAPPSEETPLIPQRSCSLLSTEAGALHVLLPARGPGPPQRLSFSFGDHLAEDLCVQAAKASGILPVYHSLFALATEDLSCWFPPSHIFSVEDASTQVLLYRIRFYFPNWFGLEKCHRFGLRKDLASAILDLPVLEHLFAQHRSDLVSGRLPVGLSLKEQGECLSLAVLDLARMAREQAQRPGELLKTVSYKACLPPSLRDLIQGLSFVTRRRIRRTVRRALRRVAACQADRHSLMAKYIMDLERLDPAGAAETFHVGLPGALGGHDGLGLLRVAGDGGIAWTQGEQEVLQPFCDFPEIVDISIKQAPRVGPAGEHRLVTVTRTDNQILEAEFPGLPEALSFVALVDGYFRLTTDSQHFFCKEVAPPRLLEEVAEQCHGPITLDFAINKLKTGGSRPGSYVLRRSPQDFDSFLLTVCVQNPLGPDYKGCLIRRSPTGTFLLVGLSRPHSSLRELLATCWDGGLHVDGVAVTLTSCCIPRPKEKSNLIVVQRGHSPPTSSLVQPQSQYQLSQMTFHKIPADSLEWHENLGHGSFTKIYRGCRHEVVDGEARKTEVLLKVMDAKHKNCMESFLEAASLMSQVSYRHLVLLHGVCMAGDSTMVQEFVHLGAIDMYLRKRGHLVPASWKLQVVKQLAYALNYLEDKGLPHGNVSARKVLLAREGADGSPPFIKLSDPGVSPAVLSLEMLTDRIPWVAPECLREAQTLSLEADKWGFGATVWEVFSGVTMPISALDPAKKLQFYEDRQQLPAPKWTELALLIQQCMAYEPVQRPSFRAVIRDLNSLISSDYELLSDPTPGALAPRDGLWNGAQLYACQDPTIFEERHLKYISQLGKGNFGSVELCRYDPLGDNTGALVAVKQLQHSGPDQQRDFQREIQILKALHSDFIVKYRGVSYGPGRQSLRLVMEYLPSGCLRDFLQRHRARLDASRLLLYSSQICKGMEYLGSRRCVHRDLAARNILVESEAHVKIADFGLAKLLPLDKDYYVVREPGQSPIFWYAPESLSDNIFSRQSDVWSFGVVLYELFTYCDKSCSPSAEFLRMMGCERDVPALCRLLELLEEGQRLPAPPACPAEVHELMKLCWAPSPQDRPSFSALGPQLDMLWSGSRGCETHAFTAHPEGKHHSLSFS

[9] = target: Ribosomal protein S6 kinase alpha-2 (Homo sapiens) (UniProt Q15349)
[10] = target: Glycogen synthase kinase-3 beta (Homo sapiens, UniProt P49841)
[11] = target: 5'-AMP-activated protein kinase catalytic subunit alpha-1 (Homo sapiens) (UniProt Q13131)
[12] = target: Cyclin-dependent kinase-like 3 (Homo sapiens) (UniProt Q8IVW4)
[13] = target: Leukocyte tyrosine kinase receptor (Homo sapiens) (UniProt P29376)
Chain of Leukocyte tyrosine kinase receptor (Homo sapiens) (P29376 whole entry): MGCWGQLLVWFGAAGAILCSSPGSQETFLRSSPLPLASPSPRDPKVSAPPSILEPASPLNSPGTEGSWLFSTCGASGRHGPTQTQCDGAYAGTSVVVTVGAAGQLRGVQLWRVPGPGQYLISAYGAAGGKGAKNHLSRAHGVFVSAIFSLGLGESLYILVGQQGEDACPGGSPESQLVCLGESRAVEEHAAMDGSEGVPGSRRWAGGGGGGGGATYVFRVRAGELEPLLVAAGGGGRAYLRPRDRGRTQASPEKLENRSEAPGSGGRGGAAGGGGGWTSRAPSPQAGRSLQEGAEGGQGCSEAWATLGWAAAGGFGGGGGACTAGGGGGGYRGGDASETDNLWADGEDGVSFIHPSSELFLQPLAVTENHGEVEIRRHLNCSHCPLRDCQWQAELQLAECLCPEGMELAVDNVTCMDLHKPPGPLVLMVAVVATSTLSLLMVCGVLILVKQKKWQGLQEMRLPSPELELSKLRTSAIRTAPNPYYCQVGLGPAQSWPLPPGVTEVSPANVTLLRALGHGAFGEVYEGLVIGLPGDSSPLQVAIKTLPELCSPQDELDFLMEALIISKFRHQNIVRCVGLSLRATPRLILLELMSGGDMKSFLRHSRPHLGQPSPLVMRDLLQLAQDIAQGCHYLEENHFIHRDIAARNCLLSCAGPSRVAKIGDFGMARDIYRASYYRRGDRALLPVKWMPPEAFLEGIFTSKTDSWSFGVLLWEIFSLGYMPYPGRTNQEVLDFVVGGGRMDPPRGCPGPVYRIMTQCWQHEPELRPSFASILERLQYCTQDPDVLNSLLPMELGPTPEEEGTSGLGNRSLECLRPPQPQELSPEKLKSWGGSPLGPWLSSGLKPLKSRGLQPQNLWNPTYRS

[14] = target: Mitogen-activated protein kinase kinase kinase 19 (Homo sapiens) (UniProt Q56UN5)
[15] = target: Ephrin type-A receptor 1 (Homo sapiens) (UniProt P21709)
Chain of Ephrin type-A receptor 1 (Homo sapiens) (P21709 whole entry): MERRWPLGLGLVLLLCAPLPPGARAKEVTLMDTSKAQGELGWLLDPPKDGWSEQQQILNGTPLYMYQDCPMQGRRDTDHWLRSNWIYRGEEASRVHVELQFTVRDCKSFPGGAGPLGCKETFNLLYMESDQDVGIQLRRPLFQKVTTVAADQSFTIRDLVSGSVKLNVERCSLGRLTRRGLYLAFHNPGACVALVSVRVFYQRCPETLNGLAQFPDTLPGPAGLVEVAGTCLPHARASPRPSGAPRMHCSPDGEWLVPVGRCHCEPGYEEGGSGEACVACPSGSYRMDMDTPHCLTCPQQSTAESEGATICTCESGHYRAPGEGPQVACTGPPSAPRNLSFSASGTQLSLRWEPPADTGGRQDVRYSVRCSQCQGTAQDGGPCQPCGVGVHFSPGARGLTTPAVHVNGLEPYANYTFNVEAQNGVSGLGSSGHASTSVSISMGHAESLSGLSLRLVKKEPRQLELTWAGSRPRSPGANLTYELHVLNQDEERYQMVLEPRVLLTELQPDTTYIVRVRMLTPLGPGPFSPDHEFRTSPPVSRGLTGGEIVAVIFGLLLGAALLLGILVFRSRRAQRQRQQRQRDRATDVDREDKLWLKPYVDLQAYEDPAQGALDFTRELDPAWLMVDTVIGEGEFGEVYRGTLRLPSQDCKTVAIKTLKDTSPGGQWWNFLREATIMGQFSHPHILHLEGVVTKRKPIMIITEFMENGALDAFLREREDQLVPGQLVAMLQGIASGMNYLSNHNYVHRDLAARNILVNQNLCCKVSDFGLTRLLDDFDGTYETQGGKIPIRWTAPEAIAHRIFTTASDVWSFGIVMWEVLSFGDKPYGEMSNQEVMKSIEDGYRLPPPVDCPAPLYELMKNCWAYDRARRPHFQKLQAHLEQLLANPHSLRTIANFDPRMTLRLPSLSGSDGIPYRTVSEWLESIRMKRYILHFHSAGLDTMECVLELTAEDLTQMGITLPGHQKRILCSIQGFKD

[16] = target: Non-receptor tyrosine-protein kinase TYK2 (Homo sapiens) (UniProt P29597)
[17] = target: Myotonin-protein kinase (Homo sapiens) (UniProt Q09013)
[18] = target: Tyrosine-protein kinase ZAP-70 (Homo sapiens) (UniProt P43403)
[19] = target: RAC-alpha serine/threonine-protein kinase (Homo sapiens) (UniProt P31749)
Chain of RAC-alpha serine/threonine-protein kinase (Homo sapiens) (P31749 whole entry): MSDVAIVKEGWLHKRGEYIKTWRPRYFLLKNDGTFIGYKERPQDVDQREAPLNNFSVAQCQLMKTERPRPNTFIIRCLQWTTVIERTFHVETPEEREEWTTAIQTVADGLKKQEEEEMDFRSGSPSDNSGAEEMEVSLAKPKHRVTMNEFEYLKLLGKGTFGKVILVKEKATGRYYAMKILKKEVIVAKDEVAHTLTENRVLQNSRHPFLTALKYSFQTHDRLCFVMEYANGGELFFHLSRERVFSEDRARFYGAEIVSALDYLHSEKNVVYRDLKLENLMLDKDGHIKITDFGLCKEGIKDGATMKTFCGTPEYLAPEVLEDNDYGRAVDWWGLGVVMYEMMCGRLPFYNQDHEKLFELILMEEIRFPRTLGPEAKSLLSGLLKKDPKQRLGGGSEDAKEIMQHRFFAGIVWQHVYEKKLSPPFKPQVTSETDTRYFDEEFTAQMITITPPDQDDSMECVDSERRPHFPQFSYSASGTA

[20] = target: Mitogen-activated protein kinase 13 (Homo sapiens) (UniProt O15264)
Chain of Mitogen-activated protein kinase 13 (Homo sapiens) (O15264 whole entry): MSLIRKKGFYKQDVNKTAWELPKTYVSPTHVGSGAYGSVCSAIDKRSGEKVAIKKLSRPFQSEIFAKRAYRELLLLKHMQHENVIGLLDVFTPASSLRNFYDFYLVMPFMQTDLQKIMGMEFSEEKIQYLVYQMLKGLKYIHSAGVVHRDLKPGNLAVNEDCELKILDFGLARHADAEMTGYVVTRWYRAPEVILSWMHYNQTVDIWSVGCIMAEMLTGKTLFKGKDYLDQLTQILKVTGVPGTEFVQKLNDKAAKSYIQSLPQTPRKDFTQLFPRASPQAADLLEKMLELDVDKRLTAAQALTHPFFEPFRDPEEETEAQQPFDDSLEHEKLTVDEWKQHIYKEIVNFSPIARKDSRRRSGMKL

[21] = target: Activin receptor type-1-like (Homo sapiens) (UniProt P37023)
[22] = target: Tyrosine-protein kinase HCK (Homo sapiens) (UniProt P08631)
[23] = target: Tyrosine-protein kinase ABL1 (Homo sapiens, UniProt P00519)
Chain of Tyrosine-protein kinase ABL1 (P00519 whole entry): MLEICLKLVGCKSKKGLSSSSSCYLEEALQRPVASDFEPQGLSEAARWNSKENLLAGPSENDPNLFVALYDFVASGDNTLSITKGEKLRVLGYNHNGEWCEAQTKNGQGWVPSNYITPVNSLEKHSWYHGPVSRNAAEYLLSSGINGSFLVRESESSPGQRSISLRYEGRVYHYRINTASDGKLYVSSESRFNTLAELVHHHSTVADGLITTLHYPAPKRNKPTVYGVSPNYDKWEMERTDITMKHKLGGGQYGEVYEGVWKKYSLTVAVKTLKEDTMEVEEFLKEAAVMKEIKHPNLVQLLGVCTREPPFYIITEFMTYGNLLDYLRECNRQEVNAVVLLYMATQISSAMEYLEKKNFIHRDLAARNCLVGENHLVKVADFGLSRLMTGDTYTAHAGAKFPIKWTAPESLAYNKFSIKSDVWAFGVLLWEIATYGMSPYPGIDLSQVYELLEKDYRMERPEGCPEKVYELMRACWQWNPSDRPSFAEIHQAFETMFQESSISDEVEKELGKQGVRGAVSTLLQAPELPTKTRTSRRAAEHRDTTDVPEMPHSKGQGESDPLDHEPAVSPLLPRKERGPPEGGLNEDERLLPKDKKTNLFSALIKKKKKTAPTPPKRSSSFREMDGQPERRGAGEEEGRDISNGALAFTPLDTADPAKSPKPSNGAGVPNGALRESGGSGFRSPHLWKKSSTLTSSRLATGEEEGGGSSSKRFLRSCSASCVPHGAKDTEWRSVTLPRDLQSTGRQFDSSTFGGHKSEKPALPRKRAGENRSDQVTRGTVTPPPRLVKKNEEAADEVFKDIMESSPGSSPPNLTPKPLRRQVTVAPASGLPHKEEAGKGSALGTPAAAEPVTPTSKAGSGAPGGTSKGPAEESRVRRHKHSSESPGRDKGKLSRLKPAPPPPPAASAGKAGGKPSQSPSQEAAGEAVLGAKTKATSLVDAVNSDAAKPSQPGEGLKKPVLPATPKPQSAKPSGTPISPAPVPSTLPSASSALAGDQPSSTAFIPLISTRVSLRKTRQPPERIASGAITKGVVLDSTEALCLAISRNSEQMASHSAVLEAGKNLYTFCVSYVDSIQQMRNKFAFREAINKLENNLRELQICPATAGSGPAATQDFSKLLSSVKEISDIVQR

[24] = target: Microtubule-associated serine/threonine-protein kinase 1 (Homo sapiens) (UniProt Q9Y2H9)
[25] = target: Mitogen-activated protein kinase kinase kinase 7 (Homo sapiens) (UniProt O43318)
[26] = target: Serine/threonine-protein kinase MRCK beta (Homo sapiens) (UniProt Q9Y5S2)
[27] = target: Receptor tyrosine-protein kinase erbB-3 (Homo sapiens) (UniProt P21860)
[28] = target: Cyclin-dependent kinase 19 (Homo sapiens) (UniProt Q9BWU1)
[29] = target: Ribosomal protein S6 kinase alpha-3 (Homo sapiens) (UniProt P51812)
Chain of Ribosomal protein S6 kinase alpha-3 (Homo sapiens) (P51812 whole entry): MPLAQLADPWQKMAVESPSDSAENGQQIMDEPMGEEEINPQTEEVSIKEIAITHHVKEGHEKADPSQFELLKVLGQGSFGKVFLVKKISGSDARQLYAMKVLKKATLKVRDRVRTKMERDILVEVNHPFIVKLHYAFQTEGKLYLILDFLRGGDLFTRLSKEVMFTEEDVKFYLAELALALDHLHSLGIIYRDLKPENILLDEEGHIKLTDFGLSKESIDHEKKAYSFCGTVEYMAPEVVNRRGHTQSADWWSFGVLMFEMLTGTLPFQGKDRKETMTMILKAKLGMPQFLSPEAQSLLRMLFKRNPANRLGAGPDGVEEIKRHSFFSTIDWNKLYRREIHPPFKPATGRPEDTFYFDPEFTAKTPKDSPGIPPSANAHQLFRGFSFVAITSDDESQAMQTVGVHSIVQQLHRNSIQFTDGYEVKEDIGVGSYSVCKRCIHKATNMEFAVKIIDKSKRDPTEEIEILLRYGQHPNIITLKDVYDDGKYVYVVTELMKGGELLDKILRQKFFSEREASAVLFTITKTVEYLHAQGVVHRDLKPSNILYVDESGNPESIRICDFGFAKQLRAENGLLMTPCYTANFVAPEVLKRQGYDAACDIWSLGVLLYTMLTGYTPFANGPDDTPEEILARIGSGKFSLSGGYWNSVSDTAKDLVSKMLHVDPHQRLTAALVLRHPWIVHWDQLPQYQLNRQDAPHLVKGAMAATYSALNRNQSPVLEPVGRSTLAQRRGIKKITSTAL

[30] = target: Serine/threonine-protein kinase N2 (Homo sapiens) (UniProt Q16513)
[31] = Compound concentration 100.0 nM
[32] = Compound concentration 1000.0 nM

Chain of Casein kinase I isoform gamma-1 (Homo sapiens) (Q9HCP0 whole entry, looked up, canonical isoform): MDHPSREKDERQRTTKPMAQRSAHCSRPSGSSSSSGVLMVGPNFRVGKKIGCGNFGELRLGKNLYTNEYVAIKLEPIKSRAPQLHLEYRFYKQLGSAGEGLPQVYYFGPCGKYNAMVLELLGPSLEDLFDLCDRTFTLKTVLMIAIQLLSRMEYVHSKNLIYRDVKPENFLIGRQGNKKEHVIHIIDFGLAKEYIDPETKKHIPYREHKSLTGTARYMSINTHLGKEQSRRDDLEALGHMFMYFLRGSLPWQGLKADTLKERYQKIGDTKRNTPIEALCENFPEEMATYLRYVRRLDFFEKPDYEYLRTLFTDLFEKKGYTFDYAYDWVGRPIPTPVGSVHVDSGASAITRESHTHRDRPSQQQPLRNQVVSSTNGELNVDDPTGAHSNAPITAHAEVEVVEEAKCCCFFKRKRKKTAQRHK

CNC(=O)c1ccc(Nc2ncc(C(F)(F)F)c(NCc3nccnc3N(C)S(C)(=O)=O)n2)cc1 [DEFACTINIB]
inhibition [1]: 12.5%
residual activity [2, 31]: 84%
residual activity [3, 31]: 100%
residual activity [4, 31]: 82%
residual activity [5, 31]: 66%
residual activity [6, 31]: 77%
inhibition [7]: 19.5%
residual activity [8, 31]: 8.2%
residual activity [9, 31]: 77%
residual activity [10, 31]: 87%
residual activity [11, 31]: 84%
residual activity [12, 31]: 92%
residual activity [13, 31]: 89%
residual activity [14, 31]: 1.7%
residual activity [15, 31]: 98%
residual activity [16, 31]: 27%
residual activity [17, 31]: 16%
residual activity [18, 31]: 100%
residual activity [19, 31]: 100%
residual activity [20, 31]: 91%
residual activity [21, 31]: 100%
residual activity [22, 31]: 100%
residual activity [23, 31]: 100%
residual activity [24, 31]: 100%
residual activity [25, 31]: 57%
residual activity [26, 31]: 90%
residual activity [27, 31]: 93%
residual activity [28, 31]: 100%
residual activity [29, 31]: 82%
residual activity [30, 31]: 37%

CN(c1ccnc(CNc2nc(Nc3ccc4c(c3)CC(=O)N4)ncc2C(F)(F)F)n1)S(C)(=O)=O [PF-00911705]
inhibition [1]: 5.78%
residual activity [2, 32]: 100%
residual activity [3, 32]: 92%
residual activity [4, 32]: 100%
residual activity [5, 32]: 14%
residual activity [6, 32]: 80%
inhibition [7]: -2.08%
residual activity [8, 32]: 1.9%
residual activity [9, 32]: 57%
residual activity [10, 32]: 57%
residual activity [11, 32]: 80%
residual activity [12, 32]: 78%
residual activity [13, 32]: 100%
residual activity [14, 32]: 0.4%
residual activity [15, 32]: 86%
residual activity [16, 32]: 27%
residual activity [17, 32]: 23%
residual activity [18, 32]: 61%
residual activity [19, 32]: 100%
residual activity [20, 32]: 100%
residual activity [21, 32]: 100%
residual activity [22, 32]: 100%
residual activity [23, 32]: 40%
residual activity [24, 32]: 69%
residual activity [25, 32]: 48%
residual activity [26, 32]: 100%
residual activity [27, 32]: 78%
residual activity [28, 32]: 84%
residual activity [29, 32]: 25%
residual activity [30, 32]: 22%
